Measurements as given in article PMC3228873 (Journal of medicinal chemistry, 2011).

Legend:
TbrPDEB2 = TbrPDEB2 (Trypanosoma brucei brucei, UniProt Q38F42); experiment: TbrPDE assay, recombinant TbrPDEB2 catalytic domain; assay type: biochemical
TbrPDEB1 = TbrPDEB1 (Trypanosoma brucei, UniProt Q8WQX9); experiment: TbrPDE assay, recombinant TbrPDEB1 catalytic domain; assay type: biochemical; settings: for IC50: read-out: TbrPDEB1 IC50, Table 1, 10% DMSO, 25 μM cAMP, ">> x μM" if <25% inh at x μM, "> x μM" if 25-50% inh at x μM; for activity against TbrPDEB1 (in words): benchmark screening; for inhibition at 100 µM / inhibition at 10 µM: read-out: inhibition of TbrPDEB1
[1] = test system: Bloodstream forms of Trypanosoma brucei brucei strain 427; experiment: Trypanosome cell culture assay; assay type: cell-based

Question: Which results are given for `CS(=O)(=O)Oc1ccc2c(NC(N)=O)c(C(=O)c3ccc(Cl)cc3Cl)oc2c1` [BAY 19-8004]?
Answer: IC50 (TbrPDEB2; read-out: TbrPDEB2 IC50, Table 1, 10% DMSO, 25 μM cAMP, ">> x μM" if <25% inh at x μM, "> x μM" if 25-50% inh at x μM): > 10 µM; IC50 (TbrPDEB1): > 10 µM

Question: How did the “inhibition of TbrPDEB1” value (TbrPDEB1; single concentration, not stated for this compound) turn out when `COc1ccc(C(=O)Nc2c(Cl)cncc2Cl)cc1OC1CCCC1` [Compound 1, piclamilast] was run?
Answer: The value was “over 50%”.

Question: How did the “activity against TbrPDEB2 (in words)” value (TbrPDEB2) turn out when `COc1cc(C(=O)Nc2c(Cl)cncc2Cl)cc(OC)c1OC` [Compound 9, N-(3,5-dichloropyridin-4-yl)-3,4,5-trimethoxybenzamide] was run?
Answer: The value was “without TbrPDEB1 or B2 activity”.

Question: And the “activity against TbrPDEB1 (in words)” value (TbrPDEB1)?
Answer: The value was “without TbrPDEB1 or B2 activity”.

Question: And the “cellular (trypanocidal) activity (in words)” value [1]?
Answer: The value was “did not show cellular activity”.

Question: `OCCN(CCO)c1nc(N2CCCCC2)c2nc(N(CCO)CCO)nc(N3CCCCC3)c2n1` [Dipyridamole (3), dipyridamole] was tested. Which inhibition at 100 µM (TbrPDEB1) did it give?
Answer: The inhibition at 100 µM was > 50%.

Question: How did the inhibition at 10 µM (TbrPDEB1) turn out when `COc1cccc(Nc2c(C(N)=O)cnc3c(C)cc(S(=O)(=O)c4cccc(C(=O)N(C)C)c4)cc23)c1` [GSK-256066, (5)] was run?
Answer: Its inhibition at 10 µM is ≥ 50%.

Question: Which inhibition at 10 µM (TbrPDEB1) does the source give for `Cc1noc(/C(=C/c2cccc(-c3cc(C(C)(C)S(C)(=O)=O)cc4cccnc34)c2)c2ccc(S(C)(=O)=O)cc2)n1` [L-454560 (4)] here?
Answer: The inhibition at 10 µM was ≥ 50%.

Question: For `CCCCOc1cc(CC2CNC(=O)N2)ccc1OC` (stereo not shown) [RO 20-1724], which IC50 (TbrPDEB1) is on record?
Answer: Its IC50 is > 100 µM.

Question: For `O=C(Nc1c(Cl)cncc1Cl)c1ccc(OC(F)F)c(OCC2CC2)c1` [Roflumilast (6), roflumilast], which “activity against TbrPDEB1 (in words)” value (TbrPDEB1) is on record?
Answer: Its value is “essentially inactive”.

Question: With `COc1ccc(C2CNC(=O)C2)cc1OC1CCCC1` (stereo not shown) [Rolipram (7), rolipram] as the molecule, how does the “activity against TbrPDEB1 (in words)” value (TbrPDEB1) read?
Answer: The value was “essentially inactive”.

Question: Which inhibition at 100 µM (TbrPDEB1) does the source give for `COc1cc2c(cc1OC)-c1c/c(=N\c3c(C)cc(C)cc3C)n(C)c(=O)n1CC2` [Trequinsin (2), trequinsin] here?
Answer: Its inhibition at 100 µM is > 50%.
